Source: the NIST ThermoML archive (doi:10.1021/acs.jced.9b00507)

Experiment: xn = mol fraction of the nth substance listed
Details: 100 kPa, Liquid; for viscosity: Concentric cylinders viscometry; for mass density: Vibrating tube method

CCCCCCn1cc[n+](C)c1.O=[N+]([O-])[O-] [1-hexyl-3-methylimidazolium nitrate] + CCCCCCCO
Details | mass density, 293.15 K [kg/m3] | mass density, 298.15 K [kg/m3] | mass density, 303.15 K [kg/m3] | viscosity, 293.15 K [mPa·s] | viscosity, 298.15 K [mPa·s] | viscosity, 303.15 K [mPa·s] | viscosity, 308.15 K [mPa·s]
x1 = 0.0812 | 857.5 | 853.9 | 850.3 | 12.74 | 10.09 | 7.94 | 6.64
x1 = 0.1608 | 889.6 | 885.9 | 882.2 | 22.91 | 16.67 | 12.19 | 9.57
x1 = 0.2395 | 919 | 915.3 | 911.5 | 36.98 | 25.12 | 17.82 | 13.27
x1 = 0.3493 | 956.7 | 953.1 | 949.3 | 67.76 | 41.88 | 28.31 | 19.95
x1 = 0.4392 | 985 | 981.5 | 977.7 | 100.46 | 61.38 | 40.09 | 27.99
x1 = 0.5749 | 1023.9 | 1020.5 | 1016.8 | 177.42 | 109.9 | 69.18 | 46.34
x1 = 0.6491 | 1043.4 | 1040 | 1036.3 | 234.42 | 150.66 | 94.19 | 61.8
x1 = 0.7398 | 1065.6 | 1062.2 | 1058.6 | 338.84 | 219.28 | 136.14 | 91.83
x1 = 0.8496 | 1090.2 | 1087.1 | 1083.5 | 508.16 | 334.2 | 213.3 | 147.57
x1 = 0.9381 | 1108.4 | 1105.4 | 1102.1 | 677.64 | 460.97 | 303.7 | 206.54
x1 = 1 | 1120.3 | 1117.5 | 1114.3 | 804.17 | 545.25 | 369.14 | 257.59
